Patent publication US20230048132A1, “CYCLIN-DEPENDENT KINASE INHIBITORS” (SPV THERAPEUTICS INC., priority 2018, published 2023)

Assays:
MAXFTN MDA-MB-231 (ER−) = test: 2D cell proliferation assay (CellTiter-Blue); format: cell-based; details: Homo sapiens, 72 h, three days of treatment, read-out: abs. IC50
How it was run: (§1)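 Exponential-phase cells plated, 24 h recovery; compound added at five concentrations in full-log steps (top 100 μM), duplicate; incubated 3 days, 37° C; CellTiter-Blue added, fluorescence measured; signal expressed as T/C% of untreated control and fitted (4-parameter) for IC50.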

MAXFLB MCF7 (ER+) = test: 2D cell proliferation assay (CellTiter-Blue); format: cell-based; details: Homo sapiens, 72 h, three days of treatment, read-out: abs. IC50
How it was run: (§2)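 Fluorescence from CellTiter-Blue reduction served as the viability signal after cells had been treated for three days with up to 100 μM compound (five log-spaced doses). Values are IC50 from a four-parameter curve fit of treated/control signal.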

CXF HCT-15 = test: 2D cell proliferation assay (CellTiter-Blue); format: cell-based; details: Homo sapiens, 72 h, three days of treatment, read-out: abs. IC50
How it was run: as §1

CXF Caco-2 = test: 2D cell proliferation assay (CellTiter-Blue); format: cell-based; details: Homo sapiens, 72 h, three days of treatment, read-out: abs. IC50
How it was run: as §1

BXF 5637 = test: 2D cell proliferation assay (CellTiter-Blue); format: cell-based; details: 72 h, three days of treatment, read-out: abs. IC50
How it was run: as §1

MAXFTN MDA-MB-453 = test: 2D cell proliferation assay (CellTiter-Blue); format: cell-based; details: Homo sapiens, 72 h, three days of treatment, read-out: abs. IC50
How it was run: as §1

MAXFTN ZR-75-1 (ER+) = test: 2D cell proliferation assay (CellTiter-Blue); format: cell-based; details: Homo sapiens, 72 h, three days of treatment, read-out: abs. IC50
How it was run: as §2

MAXFHER BT-474 = test: 2D cell proliferation assay (CellTiter-Blue); format: cell-based; details: Homo sapiens, 72 h, three days of treatment, read-out: abs. IC50
How it was run: as §1

MAXFTN MDA-MB-468 (ER−) = test: 2D cell proliferation assay (CellTiter-Blue); format: cell-based; details: Homo sapiens, 72 h, three days of treatment, read-out: abs. IC50
How it was run: as §1

LYXFNH Daudi = test: 2D cell proliferation assay (CellTiter-Blue); format: cell-based; details: Homo sapiens, 72 h, three days of treatment, read-out: abs. IC50
How it was run: as §1

CXF HT-29 = test: 2D cell proliferation assay (CellTiter-Blue); format: cell-based; details: Homo sapiens, 72 h, three days of treatment, read-out: abs. IC50
How it was run: as §1

LIXAH SNU-398 = test: 2D cell proliferation assay (CellTiter-Blue); format: cell-based; details: Homo sapiens, 72 h, three days of treatment, read-out: abs. IC50
How it was run: as §1

LEXFAM MV4-11 = test: 2D cell proliferation assay (CellTiter-Blue); format: cell-based; details: Homo sapiens, 72 h, three days of treatment, read-out: abs. IC50
How it was run: as §2

CEXF HeLa = test: 2D cell proliferation assay (CellTiter-Blue); format: cell-based; details: Homo sapiens, 72 h, three days of treatment, read-out: abs. IC50
How it was run: as §1

CDK9-CYCLINT1 = target: T1, CDK9-CYCLINT1 (Homo sapiens, UniProt P50750); test: CDK inhibition assay (microfluidic LabChip, IC50 format); format: biochemical; details: Table 4a; read-out: CDK9 CyclinT1 IC50
T1 construct: purchased Carna

CDK6-CYCLIND3 = target: T2, CDK6-CYCLIND3 (Homo sapiens, UniProt Q00534); test: as above; format: biochemical; details: Table 4a; read-out: CDK6 CyclinD3 IC50
T2 construct: purchased Carna

CDK2-CYCLINA = target: T3, CDK2-CYCLINA (Homo sapiens, UniProt P24941); test: as above; format: biochemical; details: Table 4a; read-out: CDK2 CyclinA IC50
T3 construct: purchased Millipore

CDK7 CyclinH = CDK7 CyclinH (Homo sapiens, UniProt P50613); test: as above; format: biochemical; details: Table 4a
CDK4-CYCLIND1 = CDK4-CYCLIND1 (Homo sapiens, UniProt P11802); test: as above; details: CDK4 CyclinD1 IC50, Table 4a; a second value in parentheses for some compounds
all cell lines tested = test: 2D cell proliferation assay, geometric mean over the cell line panel; format: cell-based; details: Table 5 upper part; geometric mean over the 47-line panel; read-out: Geomean abs. IC50 value
Procedure: Viability of the cells was analyzed by using the CellTiter-Blue® Cell Viability Assay (Promega), and was performed according to manufacturer's instructions. Briefly, cells were harvested from exponential phase cultures (Chapter 6.6), counted and plated in 96-well flat-bottom microtiter plates at a cell density of 4,000-60,000 cells/well in a volume of 140 μl per well. After a 24 hours recovery period, 10 μL cell culture medium (six control wells/plate) or culture medium with test compound were added (Chapter 6.2). The compounds were applied at five concentrations in full-log increments up to 100 μM in duplicate. Cultures were incubated at 37° C. and 5% CO2 in a humidified atmosphere for another three days. After three days of treatment, 20 μl/well CellTiter-Blue® reagent was added. Following incubation with CellTiter-Blue® reagent for up to four hours, fluorescence (FU) was measured by using the Enspire Multimode Plate Reader (excitation λ=570 nm, emission λ=600 nm). For calculations, the mean values of duplicate/sextuplicate (untreated control) data were used.
IC values are reported as relative IC50 values and absolute IC50 and IC70 values. […] The absolute IC70 value gives the concentration of the test compound that achieves T/C=30%. The relative IC50 value is the concentration of test compound that gives a response halfway between the top and bottom plateau of the sigmoidal concentration-response curve (inflection point of the curve). Calculation was done by 4parameter non-linear curve fit (Oncotest Data Warehouse Software).
If an IC50 or IC70 value could not be determined within the examined dose range (because a compound was either too active or lacked activity), the lowest or highest concentration studied was used for calculation of the geometric mean value.
The overall potency of a compound was determined by the geometric mean IC50/IC70 values of all individual IC50/IC70 values. In the heatmap representation of IC50 and IC70 values, the distribution of the IC50 or IC70 values obtained for a test compound in the individual cell lines is given in relation to the geometric mean IC50 or IC70 value, obtained over all PDX models tested. The individual IC values range from 1/32-fold geometric mean IC (corresponding to very potent compound activity or high tumor sensitivity) to 32-fold geometric mean IC (corresponding to lack of compound activity or tumor resistance). The heatmap presentation, therefore, represents an antiproliferative “fingerprint” profile of a test compound.

LEXFAL MOLT-4 = test: 2D cell proliferation assay (CellTiter-Blue); format: cell-based; details: Homo sapiens, 72 h, three days of treatment, read-out: abs. IC50
How it was run: as §1

[1] = Pharmacokinetics after IV bolus; format: in vivo; details: rat, plasma; rats; IV bolus 30 mg/kg; N = 3
Procedure: (§3) Nonclinical pharmacokinetic (PK) parameters of lead CDK4/6/9 inhibitors were determined in an intravenous (IV) and oral study (p.o.) conducted in rats. Lead compounds were each administered as a single oral dose at 100 mg/kg or by IV bolus via the caudal vein at the dose of 30 mg/kg. Blood samples were collected at 0.25, 0.5, 1, 2, 4, 8, 12, and 24 hours post i.v. administration, and at 1, 2, 4, 8, 24 and 48 hours post oral administration. Plasma was processed for drug concentration analysis using a validated LCMS/MS method, and PK parameters were calculated by using WinNonlin.

[2] = Pharmacokinetics after oral administration; format: in vivo; details: rat, plasma, rats
Procedure: as §3

[3] = oral administration 100 mg/kg, N = 3

T2 sequence (Q00534 whole entry): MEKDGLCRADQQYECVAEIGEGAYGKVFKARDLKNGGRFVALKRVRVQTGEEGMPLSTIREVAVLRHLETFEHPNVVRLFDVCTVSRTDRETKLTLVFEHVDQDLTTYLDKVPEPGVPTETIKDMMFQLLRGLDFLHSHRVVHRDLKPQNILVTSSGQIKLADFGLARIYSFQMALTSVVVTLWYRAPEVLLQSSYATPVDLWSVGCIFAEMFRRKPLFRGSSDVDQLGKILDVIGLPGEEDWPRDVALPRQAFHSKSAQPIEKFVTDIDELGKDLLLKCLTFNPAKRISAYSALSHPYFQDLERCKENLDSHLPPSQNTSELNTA
T2 sequence (P30281 whole entry partner): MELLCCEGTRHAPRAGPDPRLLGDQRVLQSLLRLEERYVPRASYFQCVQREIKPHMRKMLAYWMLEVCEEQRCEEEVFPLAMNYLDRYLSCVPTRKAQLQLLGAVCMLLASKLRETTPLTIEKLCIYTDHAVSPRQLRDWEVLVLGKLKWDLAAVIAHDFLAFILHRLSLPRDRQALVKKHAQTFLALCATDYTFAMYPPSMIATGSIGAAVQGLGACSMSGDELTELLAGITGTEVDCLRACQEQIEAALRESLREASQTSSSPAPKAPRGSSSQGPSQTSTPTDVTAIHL
T1 sequence (P50750 whole entry): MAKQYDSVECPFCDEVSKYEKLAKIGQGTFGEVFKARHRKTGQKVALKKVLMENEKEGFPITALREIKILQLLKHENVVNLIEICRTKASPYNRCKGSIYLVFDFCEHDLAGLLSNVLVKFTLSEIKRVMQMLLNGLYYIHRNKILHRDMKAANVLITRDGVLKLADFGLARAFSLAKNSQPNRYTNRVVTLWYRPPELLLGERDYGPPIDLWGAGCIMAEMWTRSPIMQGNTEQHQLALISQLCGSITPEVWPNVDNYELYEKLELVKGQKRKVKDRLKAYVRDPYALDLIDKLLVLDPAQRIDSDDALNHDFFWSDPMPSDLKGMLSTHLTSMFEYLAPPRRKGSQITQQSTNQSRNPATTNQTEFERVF
T1 sequence (O60563 whole entry partner): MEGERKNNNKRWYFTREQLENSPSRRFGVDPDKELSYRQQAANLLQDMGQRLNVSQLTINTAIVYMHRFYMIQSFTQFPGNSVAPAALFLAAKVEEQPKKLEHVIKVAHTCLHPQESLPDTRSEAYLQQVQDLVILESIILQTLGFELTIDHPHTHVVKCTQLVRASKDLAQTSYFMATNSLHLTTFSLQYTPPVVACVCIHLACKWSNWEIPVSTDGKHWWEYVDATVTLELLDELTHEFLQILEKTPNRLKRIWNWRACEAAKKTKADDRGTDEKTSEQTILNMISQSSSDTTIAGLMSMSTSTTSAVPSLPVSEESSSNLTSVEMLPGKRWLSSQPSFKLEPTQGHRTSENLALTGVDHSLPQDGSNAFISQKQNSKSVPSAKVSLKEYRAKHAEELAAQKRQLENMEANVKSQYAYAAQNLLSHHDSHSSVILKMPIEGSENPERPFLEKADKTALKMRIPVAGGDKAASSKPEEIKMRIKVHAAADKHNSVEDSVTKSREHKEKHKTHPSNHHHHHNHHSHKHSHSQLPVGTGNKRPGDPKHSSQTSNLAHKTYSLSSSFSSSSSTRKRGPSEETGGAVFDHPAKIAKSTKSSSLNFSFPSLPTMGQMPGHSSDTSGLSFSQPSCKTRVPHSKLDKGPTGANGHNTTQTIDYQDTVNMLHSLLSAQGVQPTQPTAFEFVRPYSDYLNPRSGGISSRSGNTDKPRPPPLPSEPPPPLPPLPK
Chain of CDK7 CyclinH (P50613 whole entry): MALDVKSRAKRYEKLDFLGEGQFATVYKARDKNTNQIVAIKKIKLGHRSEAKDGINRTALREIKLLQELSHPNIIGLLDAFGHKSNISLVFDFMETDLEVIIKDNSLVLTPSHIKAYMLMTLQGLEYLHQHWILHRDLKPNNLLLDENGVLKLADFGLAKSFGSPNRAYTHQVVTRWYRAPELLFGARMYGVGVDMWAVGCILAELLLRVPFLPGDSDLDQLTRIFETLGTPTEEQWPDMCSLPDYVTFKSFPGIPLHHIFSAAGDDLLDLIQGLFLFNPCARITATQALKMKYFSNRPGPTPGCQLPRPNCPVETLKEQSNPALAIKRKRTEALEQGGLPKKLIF
Chain of CDK7 CyclinH (P51946 whole entry partner): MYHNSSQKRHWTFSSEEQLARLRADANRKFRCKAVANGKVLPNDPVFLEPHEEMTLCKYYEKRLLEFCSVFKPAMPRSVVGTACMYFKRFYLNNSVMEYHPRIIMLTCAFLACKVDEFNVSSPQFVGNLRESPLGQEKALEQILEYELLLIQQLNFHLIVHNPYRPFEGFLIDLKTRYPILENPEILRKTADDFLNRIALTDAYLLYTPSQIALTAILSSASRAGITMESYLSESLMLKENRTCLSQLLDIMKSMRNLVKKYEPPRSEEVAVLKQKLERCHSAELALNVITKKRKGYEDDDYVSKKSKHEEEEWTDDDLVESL
Chain of CDK7 CyclinH (P51948 whole entry partner): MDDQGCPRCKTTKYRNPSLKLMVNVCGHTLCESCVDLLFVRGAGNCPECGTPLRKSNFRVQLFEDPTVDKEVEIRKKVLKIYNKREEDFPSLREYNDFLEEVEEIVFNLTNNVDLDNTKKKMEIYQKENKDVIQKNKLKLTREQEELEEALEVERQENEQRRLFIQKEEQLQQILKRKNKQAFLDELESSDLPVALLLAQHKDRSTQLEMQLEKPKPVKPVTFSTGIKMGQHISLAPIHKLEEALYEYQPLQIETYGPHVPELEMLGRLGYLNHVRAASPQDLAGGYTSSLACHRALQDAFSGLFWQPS
Chain of CDK4-CYCLIND1 (P11802 whole entry): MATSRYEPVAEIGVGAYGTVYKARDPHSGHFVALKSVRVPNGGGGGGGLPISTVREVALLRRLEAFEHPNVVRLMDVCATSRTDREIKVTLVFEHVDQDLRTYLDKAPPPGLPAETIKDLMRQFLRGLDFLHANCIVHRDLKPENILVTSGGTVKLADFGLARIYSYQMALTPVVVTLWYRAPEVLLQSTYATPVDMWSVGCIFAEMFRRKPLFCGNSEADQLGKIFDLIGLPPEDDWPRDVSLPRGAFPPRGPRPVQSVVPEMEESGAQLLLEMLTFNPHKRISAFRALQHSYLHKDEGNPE
Chain of CDK4-CYCLIND1 (P24385 whole entry partner): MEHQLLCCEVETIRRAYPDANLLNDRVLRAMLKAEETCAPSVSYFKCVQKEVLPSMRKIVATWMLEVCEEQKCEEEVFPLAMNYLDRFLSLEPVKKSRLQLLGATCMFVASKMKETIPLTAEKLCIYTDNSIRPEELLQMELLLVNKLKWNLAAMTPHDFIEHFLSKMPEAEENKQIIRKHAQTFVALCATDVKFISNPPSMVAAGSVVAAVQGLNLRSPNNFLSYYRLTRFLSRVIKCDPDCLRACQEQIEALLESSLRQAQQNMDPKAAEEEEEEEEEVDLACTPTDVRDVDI

Row | SMILES | IC50 (MAXFTN MDA-MB-231 (ER−)) | IC50 (MAXFLB MCF7 (ER+)) | IC50 (CXF HCT-15) | IC50 (CXF Caco-2) | IC50 (BXF 5637) | IC50 (MAXFTN MDA-MB-453) | IC50 (MAXFTN ZR-75-1 (ER+)) | IC50 (MAXFHER BT-474) | IC50 (MAXFTN MDA-MB-468 (ER−)) | IC50 (CXF HT-29) | IC50 (LIXAH SNU-398) | IC50 (LEXFAM MV4-11) | IC50 (CEXF HeLa) | IC50 (CDK9-CYCLINT1) | IC50 (CDK6-CYCLIND3) | IC50 (CDK2-CYCLINA) | IC50 (CDK7 CyclinH) | IC50 (CDK4-CYCLIND1) | IC50 (all cell lines tested) | also measured
1 | O=C1NCC[C@@]12Cc1cnc(Nc3ccc(N4CCNCC4)cc3F)nc1N(C1CCCC1)C2=O [Example D146, (S)-8-cyclopentyl-2-((2-fluoro-4-(piperazin-1-yl)phenyl)amino)-5,8-dihydro-7H-spiro[pyrido[2,3-d]pyrimidine-6,3′-pyrrolidine]-2′,7-dione] | 703 nM | 1.04 µM | 2.05 µM | 23 µM | 1.49 µM | 327 nM | 9.03 µM | 5.55 µM | 0.925 µM | 8.98 µM | 251 nM | ≤ 10 nM | 1.57 µM | 24.8 nM | 8.12 nM | 273 nM | 1120 nM | 4.19 nM | 1.24 µM | IC50 (LYXFNH Daudi): 162 nM
2 | CN(C)CCOc1ccc(Nc2ncc3c(n2)N(C2CCCC2)C(=O)[C@]2(CCNC2=O)C3)cc1 [Example D179, (S)-8-cyclopentyl-2-((4-(2-(dimethylamino)ethoxy)phenyl)amino)-5,8-dihydro-7H-spiro[pyrido[2,3-d]pyrimidine-6,3′-pyrrolidine]-2′,7-dione] | 53 nM | 0.057 µM | 1.41 µM | ≥ 100 µM | 0.143 µM | 57 nM | 0.409 µM | 0.125 µM | 0.681 µM | 0.562 µM | 25 nM | ≤ 10 nM | 0.268 µM | 1.85 nM | 2.15 nM | 67.5 nM | 321 nM | 1.27 nM | 0.205 µM | IC50 (LEXFAL MOLT-4): 177 nM; Cmax [1]: 6200 ng/mL; clearance [1]: 38.3 mL/min/kg; half-life [1]: 136 min; bioavailability ([2]; oral 100 mg/kg versus IV 30 mg/kg, read-out: BIOAVAILABILITY F): 36.3%; AUC [2, 3]: 14200 ng·h/mL; Cmax [2, 3]: 3360 ng/mL; MRT [2, 3]: 2.99 h; half-life [2, 3]: 186 min
3 | CN(C)[C@H]1CCN(c2ccc(Nc3ncc4c(n3)N(C3CCCC3)C(=O)[C@]3(CCNC3=O)C4)nc2)C1 [Example D178, (S)-8-cyclopentyl-2-((5-((S)-3-(dimethylamino)pyrrolidin-1-yl)pyridin-2-yl)amino)-5,8-dihydro-7H-spiro[pyrido[2,3-d]pyrimidine-6,3′-pyrrolidine]-2′,7-dione] | 2450 nM | 32 µM | 29.5 µM | ≥ 100 µM | 34.3 µM | 2000 nM | 88.2 µM | 67.9 µM | 68.2 µM | 31.8 µM | 608 nM | ≤ 10 nM | 36.9 µM | 4.25 nM | 1.88 nM | 127 nM | 1130 nM | 1.03 nM | 16.5 µM | –
4 | CC(C)N1CCN(c2ccc(Nc3ncc4c(n3)N(C3CCCC3)C(=O)[C@]3(CCNC3=O)C4)nc2)CC1 [Example D154, (S)-8-cyclopentyl-2-((5-(4-isopropylpiperazin-1-yl)pyridin-2-yl)amino)-5,8-dihydro-7H-spiro[pyrido[2,3-d]pyrimidine-6,3′-pyrrolidine]-2′,7-dione] | 4860 nM | 29.8 µM | 22.1 µM | ≥ 100 µM | 17.6 µM | 7680 nM | ≥ 100 µM | 81.1 µM | 72.9 µM | 29.9 µM | 6840 nM | ≤ 10 nM | 72.6 µM | 163 nM | 2.34 nM | 2140 nM | 13500 nM | 2.05 nM | 17 µM | –
